Publication PMC10708537, “Tetrahydrocurcumin Derivatives Enhanced the Anti-Inflammatory Activity of Curcumin: Synthesis, Biological Evaluation, and Structure–Activity Relationship Analysis” (Molecules, 2023)
“Also recorded” adds a separate entry of the source. Like-named read-outs stand apart in the source and are kept apart here.

Legend:
[1] = tested on: macrophages from the peritoneal cavities of C57BL/6 mice; test: MTT cytotoxicity assay on macrophages; type: cell-based; conditions: 30 μM, after supernatant collection (Figure 4C)
Experimental: After removing the supernatants, 100 μL of 0.5 mg/mL MTT in RPMI was added to each well. Cells were incubated overnight at 37 °C, and formazan crystals were dissolved in 100 µL of 0.04 M HCl in isopropanol. Then, the absorbance was measured at 570 nm using an ELISA plate reader. Cell viability was calculated using the following formula: % viability: [(OD sample) × 100%]/(OD control). Nonstimulated cells represented 100% viability.

IL-6 = test: LPS-induced IL-6 production in peritoneal macrophages (ELISA); type: cell-based, C57BL/6 mice
Experimental: (§1) Peritoneal macrophages were obtained by washing the peritoneal cavities of C57B1/6 mice five days after intraperitoneal instillation of 2 mL of 3% thioglycollate. Macrophages were seeded in RPMI containing 10% FCS at 2 × 10^5 cells/well in 96-well plates and cultured for 2 h at 37 °C under a 5% CO2 atmosphere. Adherent cells were pretreated with the compounds (30 μM) 1 h before stimulation with LPS (10 ng/mL). For dose–response experiments, compounds were used at concentrations of 1, 3, 10, and 30 μM. Supernatants were collected 6 h after LPS stimulation. Control and experimental treatments were performed in the presence of 0.5% DMSO, as the compounds were solubilized in this solvent. The concentrations of TNF-α, IL-6, and PGE2 were determined by ELISA (R&D System) following the manufacturer’s protocol.
(§2) Results from the cytokine measurements and cytotoxicity assays were analyzed using the statistical software package GraphPad Prism 9.4.0. All data are presented as the mean ± S.E.M. Statistical analysis was performed by Student’s t-test. The differences between samples were considered significant when p < 0.05. The 50% inhibitory concentration (IC50) was calculated by adjusting a sigmoidal dose–response curve following the standard procedure in GraphPad Prism 5.

TNF-α = test: LPS-induced TNF-α production in peritoneal macrophages (ELISA); type: cell-based, C57BL/6 mice; conditions: for IC50: macrophages pretreated 1 h, supernatant 6 h, two independent experiments in triplicate, read-out: IC50 ± S.D. (μM) TNF-α
Experimental: as §1, §2

PGE2 = test: LPS-induced PGE2 production in peritoneal macrophages (ELISA); type: cell-based, C57BL/6 mice; conditions: 30 μM, LPS 10 ng/mL, 6 h (Figure 6)
Experimental: as §1

[2] = Mus musculus, Macrophage, LPS 10 ng/mL
[3] = Mus musculus, Macrophage, macrophages pretreated 1 h, LPS 10 ng/mL, supernatant 6 h, two independent experiments in triplicate, read-out: IC50 ± S.D. (μM) IL-6
[4] = Mus musculus, Peritoneal macrophage, converted from IL-6 IC50 of this work, used for 3D-QSAR, read-out: Experimental pIC50 (converted)
[5] = dose-response, 10 µM (Figure 5B)
[6] = dose-response, lowest concentration 1 µM (Figure 5B)
[7] = dose-response, all concentrations tested (1, 3, 10, 30 μM) (Figure 5A)
[8] = single concentration 30 μM, LPS 10 ng/mL, 6 h (Figure 4A)

Compound: COc1cc(CC/C(O)=C/C(=O)CCc2ccc(OC(=O)CCC(=O)O[C@@H]3C[C@H](C)CC[C@H]3C(C)C)c(OC)c2)ccc1OC(=O)CCC(=O)O[C@@H]1C[C@@H](C)CC[C@@H]1C(C)C [Compound 7, O,O′-(((Z)-3-Hydroxy-5-oxohept-3-ene-1,7-diyl)bis(2-methoxy-4,1-phenylene)) bis((1R,2S,5R)-2-Isopropyl-5-methylcyclohexyl) Disuccinate]
- cytotoxicity (cell viability, MTT) [1]: cytotoxic

Compound: Curcumin [Compound 1, reference compound]
- IC50 (IL-6; Table S1, compounds presented in the current work, read-out: IC50 ± S.D. (uM) IL-6): 6.85 ± 2.5 µM

Compound: COc1cc(CCC(=O)/C=C(\O)CCc2ccc(OC(=O)CCC(=O)OC3CCCc4ccccc43)c(OC)c2)ccc1OC(=O)CCC(=O)OC1CCCc2ccccc21 (stereo not shown) [Compound 8, (Z)-O,O′-((3-Hydroxy-5-oxohept-3-ene-1,7-diyl)bis(2-methoxy-4,1-phenylene)) bis(1,2,3,4-Tetrahydronaphthalen-1-yl) Disuccinate]
- IC50 (TNF-α; [2]): 3.21 ± 4.52 µM
- IC50 (IL-6; [3]): 3.48 ± 4.39 µM
- IC50 (IL-6; [4]): 3.47 µM
- inhibition of IL-6 production (IL-6; [5]): inhibited

Compound: COc1cc(CCC(=O)/C=C(\O)CCc2ccc(OC(=O)CCC(=O)OC3CCCC3)c(OC)c2)ccc1OC(=O)CCC(=O)OC1CCCC1 [Compound 10, (Z)-Dicyclopentyl O,O′-((3-Hydroxy-5-oxohept-3-ene-1,7-diyl)bis(2-methoxy-4,1-phenylene)) Disuccinate]
- IC50 (IL-6; [3]): 3.66 ± 4.21 µM
- IC50 (IL-6; [4]): 3.63 µM

Compound: COC(=O)CCC(=O)Oc1ccc(CCC(=O)/C=C(\O)CCc2ccc(OC(=O)CCC(=O)OC)c(OC)c2)cc1OC [Compound 11, (Z)-O,O′-((3-Hydroxy-5-oxohept-3-ene-1,7-diyl)bis(2-methoxy-4,1-phenylene)) dimethyl Disuccinate]
- reduction of PGE2 production (PGE2): significantly reduced; also recorded: highest activity
- inhibition of TNF-α production (TNF-α; dose-response, 3 µM (Figure 5A)): showed an effect only when used at a concentration of 3 µM
- IC50 (IL-6; [3]): 0.17 ± 0.21 µM
- IC50 (IL-6; [4]): 0.17 µM
- inhibition of IL-6 production (IL-6; [6]): inhibited

Compound: COc1cc(CCC(=O)/C=C(\O)CCc2ccc(OC(=O)CCC(=O)OCc3ccccc3)c(OC)c2)ccc1OC(=O)CCC(=O)OCc1ccccc1 [Compound 9, (Z)-Dibenzyl O,O′-((3-Hydroxy-5-oxohept-3-ene-1,7-diyl)bis(2-methoxy-4,1-phenylene)) Disuccinate]
- cytotoxicity (cell viability, MTT) [1]: cytotoxic

Compound: COc1cc(CCC(=O)/C=C(\O)CCc2ccc(OC(=O)CCC(=O)OC3Cc4ccccc4C3)c(OC)c2)ccc1OC(=O)CCC(=O)OC1Cc2ccccc2C1 [Compound 5, (Z)-bis(2,3-Dihydro-1H-inden-2-yl) O,O′-((3-hydroxy-5-oxohept-3-ene-1,7-diyl)bis(2-methoxy-4,1-phenylene)) Disuccinate]
- IC50 (IL-6; [3]): 9.13 ± 5.9 µM
- IC50 (IL-6; [4]): 9.12 µM

Compound: C#CCOC(=O)CCC(=O)Oc1ccc(CCC(=O)/C=C(\O)CCc2ccc(OC(=O)CCC(=O)OCC#C)c(OC)c2)cc1OC [Compound 3, (Z)-O,O′-((3-Hydroxy-5-oxohept-3-ene-1,7-diyl)bis(2-methoxy-4,1-phenylene)) di(prop-2-yn-1-yl) Disuccinate]
- reduction of PGE2 production (PGE2): significantly reduced; also recorded: highest activity
- inhibition of IL-6 production (IL-6; single concentration 30 μM, LPS 10 ng/mL, 6 h (Figure 4B)): All compounds, except compound 3, inhibited the production of IL-6

Compound: Tetrahydrocurcumin [Compound 2, reference compound]
- reduction of PGE2 production (PGE2): but not PGE2 production
- inhibition of TNF-α production (TNF-α; [7]): inhibited
- IC50 (TNF-α; LPS 10 ng/mL): 0.18 ± 0.18 µM
- inhibition of TNF-α production (TNF-α; [8]): inhibited
- Experimental pIC50 (IL-6; converted from IL-6 IC50 of this work, used for 3D-QSAR): 6.77
- inhibition of IL-6 production (IL-6; [5]): inhibited
- inhibition of IL-6 production (IL-6; [6]): inhibited
- IC50 (IL-6; macrophages pretreated 1 h, LPS 10 ng/mL, supernatant 6 h, two independent experiments in triplicate, read-out: IC50 ± S.D. (μM) IL-6): 0.17 ± 0.2 µM

Compound: C=CCOC(=O)CCC(=O)Oc1ccc(CCC(=O)/C=C(\O)CCc2ccc(OC(=O)CCC(=O)OCC=C)c(OC)c2)cc1OC [Compound 12, (Z)-Diallyl O,O′-((3-hydroxy-5-oxohept-3-ene-1,7-diyl)bis(2-methoxy-4,1-phenylene)) Disuccinate]
- reduction of PGE2 production (PGE2): significantly reduced; also recorded: highest activity; also recorded: more biologically active than tetrahydrocurcumin
- IC50 (TNF-α; [2]): 0.7 ± 0.1 µM
- inhibition of TNF-α production (TNF-α; [7]): inhibited
- inhibition of TNF-α production (TNF-α; [8]): inhibited
- IC50 (IL-6; [3]): 0.72 ± 0.38 µM
- IC50 (IL-6; [4]): 0.724 µM
- inhibition of IL-6 production (IL-6; [6]): inhibited

Compound: COc1cc(CCC(=O)/C=C(\O)CCc2ccc(OC(=O)CCC(=O)OC3c4ccccc4-c4ccccc43)c(OC)c2)ccc1OC(=O)CCC(=O)OC1c2ccccc2-c2ccccc21 [Compound 4, (Z)-di(9H-Fluoren-9-yl)O,O′-((3-hydroxy-5-oxohept-3-ene-1,7-diyl)bis(2-methoxy-4,1-phenylene)) Disuccinate]
- IC50 (IL-6; [3]): 4.28 ± 4.88 µM
- IC50 (IL-6; [4]): 4.27 µM
- inhibition of IL-6 production (IL-6; [5]): inhibited

Compound: COc1cc(CCC(=O)/C=C(\O)CCc2ccc(OC(=O)CCC(=O)OC(c3ccccc3)c3ccccc3)c(OC)c2)ccc1OC(=O)CCC(=O)OC(c1ccccc1)c1ccccc1 [Compound 6, (Z)-Dibenzhydryl O,O′-((3-hydroxy-5-oxohept-3-ene-1,7-diyl)bis(2-methoxy-4,1-phenylene)) Disuccinate]
- cytotoxicity (cell viability, MTT) [1]: cytotoxic
